Article PMC9790248, “Effects of CYP3A Inhibition, CYP3A Induction, and Gastric Acid Reduction on the Pharmacokinetics of Ripretinib, a Switch Control KIT Tyrosine Kinase Inhibitor” (Clinical Pharmacology in Drug Development, 2022)
Read-outs that look alike come from different tables or passages of the source.

Tests used:
[1] = Stability in human plasma (K2EDTA), bioanalytical validation; assay type: in vitro ADME; conditions: with or without concomitant medications
Procedure: Following the bioanalytical method validation guidance, the analytical method was validated to verify that the assay was a robust and reliable measurement of ripretinib and DP‐5439 in human plasma with dipotassium ethylenediaminetetraacetic acid (K2EDTA) as the anticoagulant. The linear range of method was 2.00–1000 ng/mL for both ripretinib and DP‐5439. The coefficient of variation (CV%) (precision) for intra‐ and interassay at each quality control (QC) level was ≤15.0% (≤20.0% at the LLOQ QC level: 2 ng/mL for both ripretinib and DP‐5439). The mean % Bias (accuracy) at each QC level was within ±15.0% (±20.0% at the LLOQ QC level) from its respective nominal concentration.

hepatocytes = tested on: hepatocytes; design: method as in PMID 31085175; conditions: cited from earlier work
[2] = Pantoprazole (proton pump inhibitor) DDI study, plasma pharmacokinetics; assay type: in vivo, human; conditions: for AUC(0-t) / AUC(0-inf) / Cmax / half-life / Tmax: both sexes, human, plasma; for AUC(0-t) / AUC(0-inf) / Cmax / half-life: po; for AUC(0-t) / AUC(0-inf) / Cmax / half-life / Tmax / CL/F, arithmetic mean (SD) / CL/F, geometric mean (CV%): fasting; for Tmax: read-out: tmax, median (min, max); for Time postdose that mean plasma concentration remained above the LLOQ: LLOQ 2.00 ng/mL
Procedure: All studies were phase 1, fixed‐sequence, open‐label studies in healthy volunteers. One study consisted of two separate cohorts examining DDIs between ripretinib and itraconazole or pantoprazole, respectively; the rifampin study was conducted separately. Studies and cohorts were enrolled independently. Eligible participants were healthy male or female adults between 18 and 55 years of age with a body mass index (BMI) of ≥18.5 and ≤30 kg/m^2. Good health was confirmed by a physician and based on medical evaluation with no significant findings, including medical history, physical examination, laboratory tests, and 12‐lead electrocardiogram (ECG) at screening and day −1. Participants were required to abstain from alcohol, marijuana, grapefruit, Seville oranges, tangelo, star fruit, and grapefruit‐like products 14 days prior to and during the study. Participants with a positive breath test for Helicobacter pylori were excluded from the pantoprazole study.
Participants were confined to the study center on days 1 through 16. On day 1, participants received an oral dose of ripretinib 50 mg under fasting conditions (Figure 1C). On days 8 through 13, participants received pantoprazole 40 mg once daily. On day 14, participants received pantoprazole 40 mg once daily and ripretinib 50 mg simultaneously under fasting conditions.
Ripretinib and its active metabolite DP‐5439 plasma concentrations were measured using a validated high‐performance liquid chromatography (HPLC) with tandem mass spectrometry (LC‐MS/MS) assay with a lower limit of quantification (LLOQ) of 2.00 ng/mL for both analytes. In this method, the analytes (ripretinib and DP‐5439) and the internal standards (ISs; DCC‐2618‐d5 and DP‐5439‐d5) were released from human plasma samples by protein precipitation. The supernatants were chromatographed using reversed‐phase HPLC with a Betasil® C8 analytical column with deionized water (0.1% formic acid) and 40/60 acetonitrile/acetone (0.1% formic acid) as the mobile phase. Mass spectrometric detection was performed on a triple quadrupole tandem mass spectrometer API 5000 or API 5500 (Applied Biosystems/MDS Sciex, Toronto, Canada) equipped with a turbo ion spray source operated in the positive ionization mode. The source parameters were collision energy 40 eV, collision gas 6 psi, Nebulizer Gas 1, Turbo IonSpray Gas 2, and curtain gas 35 psi. Quantification was obtained by using multiple reaction monitoring mode of the transitions of mass to charge ratio [m/z] 510.3 →417 for DCC‐2618 (ripretinib), m/z 496.2 →403 for DP‐5439, m/z 515.3 →417 for DCC‐2618‐d5, and m/z 501.2 →403 for DP‐5439‐d5.
Plasma concentration–time data were analyzed using noncompartmental methods using Phoenix® WinNonlin® v7.0 (Certara USA Inc., Princeton, New Jersey). Derived PK parameters included area under the concentration–time curve from time 0 to time t (AUC0–t) and area under the concentration–time curve from 0 to infinity (AUC0–∞), maximum observed concentration (Cmax), time of maximum observed concentration (tmax), elimination half‐life (t1/2), apparent systemic clearance, and for DP‐5439, metabolite to parent ratio for AUC0–t, AUC0–∞, and Cmax.
The PK population included all participants who received ≥1 dose ripretinib and had ≥1 nonmissing PK concentration in plasma reported for ripretinib or DP‐5439. The PK evaluable set included all participants in the PK population who had ripretinib PK parameters on both ripretinib dosing days, bioanalytical results for ≥75% of planned analyses, no missed ripretinib doses and ≤2 missed perpetrator (itraconazole, pantoprazole, or rifampin) doses before the second dosing day of ripretinib, and no emesis within 8 hours of ripretinib administration. […]

[3] = ripretinib 50 mg single oral dose + pantoprazole 40 mg QD, healthy participants (N = 23)
[4] = ripretinib 50 mg single oral dose alone, healthy participants (pantoprazole study, N = 23)
[5] = ripretinib 50 mg with pantoprazole 40 mg QD relative to ripretinib alone
[6] = ripretinib 50 mg with pantoprazole 40 mg QD relative to ripretinib alone, listed as ripretinib

For `CCn1c(=O)c(-c2cc(NC(=O)Nc3ccccc3)c(F)cc2Br)cc2cnc(NC)cc21` [Ripretinib], the “Stability in human plasma at room temperature” value ([1]; 16 hours at room temperature under normal laboratory lighting) is listed as “stable”, the “Stability in human plasma, freeze–thaw” value ([1]; four cycles of freeze (−20 and −70°C) and thaw (room temperature)) is listed as “stable” and the Major metabolic pathway (hepatocytes) is listed as “N‐demethylation”. The AUC(0-t) ([2]; 50 mg, ripretinib 50 mg single oral dose alone, healthy participants (pantoprazole study, N = 23), read-out: AUC0–t, arithmetic mean (SD)) was 3870 ng·h/mL, the AUC(0-t) ([2]; 50 mg, ripretinib 50 mg single oral dose alone, healthy participants (pantoprazole study, N = 23), read-out: AUC0–t, geometric mean (CV%)) was 3610 ng·h/mL and the AUC(0-inf) ([2]; 50 mg, ripretinib 50 mg single oral dose alone, healthy participants (pantoprazole study, N = 23), read-out: AUC0–∞, arithmetic mean (SD)) was 3950 ng·h/mL. It also gave an AUC(0-inf) ([2]; 50 mg, ripretinib 50 mg single oral dose alone, healthy participants (pantoprazole study, N = 23), read-out: AUC0–∞, geometric mean (CV%)) of 3690 ng·h/mL, a Cmax ([2]; 50 mg, ripretinib 50 mg single oral dose alone, healthy participants (pantoprazole study, N = 23), read-out: Cmax, arithmetic mean (SD)) of 301 ng/mL and a Cmax ([2]; 50 mg, ripretinib 50 mg single oral dose alone, healthy participants (pantoprazole study, N = 23), read-out: Cmax, geometric mean (CV%)) of 289 ng/mL. The half-life ([2]; 50 mg, ripretinib 50 mg single oral dose alone, healthy participants (pantoprazole study, N = 23), read-out: t1/2, arithmetic mean (SD) (converted)) was 14 h, the half-life ([2]; 50 mg, ripretinib 50 mg single oral dose alone, healthy participants (pantoprazole study, N = 23), read-out: t1/2, geometric mean (CV%) (converted)) was 13 h and the AUC(0-t) ([2]; ripretinib 50 mg single oral dose + pantoprazole 40 mg QD, healthy participants (N = 23), read-out: AUC0–t, arithmetic mean (SD)) was 4220 ng·h/mL. The AUC(0-t) ([2]; ripretinib 50 mg single oral dose + pantoprazole 40 mg QD, healthy participants (N = 23), read-out: AUC0–t, geometric mean (CV%)) was 3940 ng·h/mL, the AUC(0-inf) ([2]; ripretinib 50 mg single oral dose + pantoprazole 40 mg QD, healthy participants (N = 23), read-out: AUC0–∞, arithmetic mean (SD)) was 4310 ng·h/mL and the AUC(0-inf) ([2]; ripretinib 50 mg single oral dose + pantoprazole 40 mg QD, healthy participants (N = 23), read-out: AUC0–∞, geometric mean (CV%)) was 4030 ng·h/mL. The Cmax ([2]; ripretinib 50 mg single oral dose + pantoprazole 40 mg QD, healthy participants (N = 23), read-out: Cmax, arithmetic mean (SD)) was 319 ng/mL, the Cmax ([2]; ripretinib 50 mg single oral dose + pantoprazole 40 mg QD, healthy participants (N = 23), read-out: Cmax, geometric mean (CV%)) was 298 ng/mL and the half-life ([2]; ripretinib 50 mg single oral dose + pantoprazole 40 mg QD, healthy participants (N = 23), read-out: t1/2, arithmetic mean (SD) (converted)) was 14 h. It also gave a half-life ([2]; ripretinib 50 mg single oral dose + pantoprazole 40 mg QD, healthy participants (N = 23), read-out: t1/2, geometric mean (CV%) (converted)) of 14 h, a Tmax [2, 3] of 4 h and a Tmax [2, 4] of 4 h. The “Effect of pantoprazole on exposure / pharmacokinetics” value ([2]; ripretinib 50 mg + pantoprazole 40 mg QD) was “no effect”, the “Time postdose that mean plasma concentration remained above the LLOQ” value ([2]; ripretinib 50 mg alone (pantoprazole study)) was less than 96 h and the “CL/F, arithmetic mean (SD)” value [2, 3] was 13 (5) L/h. The “CL/F, geometric mean (CV%)” value [2, 3] was 12 (38) L/h, the “CL/F, arithmetic mean (SD)” value [2, 4] was 14 (5) L/h and the “CL/F, geometric mean (CV%)” value [2, 4] was 14 (38) L/h. The “Geometric LS mean ratio of AUC0–t” value [2, 5] was 109%, the “Geometric LS mean ratio of AUC0–∞ (90% CI)” value [2, 5] was 109 (98–122) % and the “Geometric LS mean ratio of Cmax (90% CI)” value [2, 5] was 103 (91–117) %. For the same molecule, the “Geometric LS mean ratio of AUC0–∞ (90% CI)” value [2, 6] was 109%, the “Geometric LS mean ratio of Cmax (90% CI)” value [2, 6] was 103% and the “Time postdose that mean plasma concentration remained above the LLOQ” value ([2]; ripretinib 50 mg with pantoprazole) was less than 96 h.
